Experiments:
GALAP (Galium) = experiment: Postemergence herbicidal evaluation; type: in vivo, Galium aparine; conditions: for GALAP herbicidal rating: postemergence
Outline: (§1)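 Two-week-old seedlings sprayed with compound in 50/50 acetone/water plus 0.5% TWEEN 20, at about 0.0156 to 0.500 kg/ha, nozzle at 40 psi. Kept in greenhouse; rated visually 4-5 weeks after treatment on a 0-9 scale versus control, repeat tests averaged.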

ZEAMX (Corn, Field) = experiment: Preemergence herbicidal evaluation; type: in vivo, Zea mays; conditions: rated 4-5 weeks after treatment
Outline: (§2)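 Herbicidal effect scored visually, 0-9, at 4 to 5 weeks against a control; compound applied preemergence by aqueous acetone spray to seeded soil at about 0.0156 to 0.500 kg/ha.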

[1] = test system: TRZAWR (Wheat, Winter, cv Riband); experiment: Preemergence herbicidal evaluation; type: in vivo, Triticum aestivum; conditions: rated 4-5 weeks after treatment
Outline: as §2

CYPIR (Rice Flatsedge) = experiment: Postemergence weed control under flooded paddy conditions; type: in vivo, Cyperus iria; conditions: postemergence weeds, 3-4 weeks after treatment
Outline: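 Injury ratings (0–9 scale covering stand, vigor, malformation, size, chlorosis and overall appearance versus control) were made three to four weeks after treatment. Test material, about 0.0313 to 0.500 kg/ha a.i. in 50/50 v/v aqueous/acetone, was added to flood water 1.5 to 3 cm deep over 3 to 5 cm weeds and 1.5 to 2.5 leaf rice.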

[2] = test system: SAGPY (Arrowhead (Pygmaea)); experiment: Preemergence weed control under flooded paddy conditions; type: in vivo, Sagittaria pygmaea; conditions: rated 3-4 weeks after treatment
Outline: (§3)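 Visual injury scored 0-9 against control three to four weeks post-treatment, greenhouse-grown. Application: acetone/water (50/50) solutions dosed directly into flood water (1.5-3 cm over silt loam, planted top 0.5 cm), roughly 0.0313 to 0.500 kg/ha active ingredient.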

MOOVA (Monochoria) = experiment: as above; type: in vivo, Monochoria vaginalis; conditions: rated 3-4 weeks after treatment
Outline: as §3

AMBEL (Ragweed, Common) = experiment: Postemergence herbicidal evaluation; type: in vivo, Ambrosia artemisifolia; conditions: for AMBEL herbicidal rating: postemergence
Outline: as §1

ECHCG (Barnyardgrass) = experiment: Preemergence herbicidal evaluation; type: in vivo, Echinochloa crus-galli; conditions: rated 4-5 weeks after treatment
Outline: as §2

CASOB (Sicklepod) [3] = experiment: Postemergence herbicidal evaluation; type: in vivo, Cassia obtusifolia; conditions: for CASOB herbicidal rating: postemergence
Outline: as §1

[4] = test system: GLXMAW (Soybean, Williams); experiment: Preemergence herbicidal evaluation; type: in vivo, Glycine max, (L.) Merr. cv Williams; conditions: rated 4-5 weeks after treatment
Outline: as §2

ABUTH (Velvetleaf) = experiment: Preemergence herbicidal evaluation; type: in vivo, Abutilon theophrasti; conditions: rated 4-5 weeks after treatment
Outline: as §2

CASOB (Sicklepod) [5] = experiment: Preemergence herbicidal evaluation; type: in vivo, Cassia obtusifolia; conditions: rated 4-5 weeks after treatment
Outline: as §2

[6] = test system: IPOHE (Morningglory, Ivyleaf); experiment: Preemergence herbicidal evaluation; type: in vivo, Ipomoea hederacea; conditions: rated 4-5 weeks after treatment
Outline: as §2

[7] = test system: IPOHE (Morningglory, Ivyleaf); experiment: Postemergence herbicidal evaluation; type: in vivo, Ipomoea hederacea; conditions: for IPOHE herbicidal rating: postemergence
Outline: as §1

Compound: CCOC(=O)CN1C(=O)CSC1=Nc1cc(N2C(=O)C3=C(CCCC3)C2=O)c(F)cc1Cl [Compound 47, Ethyl 2-{[2-chloro-5-(1-cyclohexene-1,2-dicarboximido)-4-fluorophenyl]imino}-4-oxo-3-thiazolidineacetate]
- Postemergence herbicidal rating GALAP (GALAP (Galium); Rate 0.0156 kg/ha): 0.0
- Postemergence herbicidal rating GALAP (GALAP (Galium); Rate 0.0313 kg/ha): 3.0
- Postemergence herbicidal rating GALAP (GALAP (Galium); Rate 0.0625 kg/ha): 3.0
- Preemergence herbicidal rating ZEAMX (ZEAMX (Corn, Field); rate 0.0156 kg/ha): 0.0
- Preemergence herbicidal rating ZEAMX (ZEAMX (Corn, Field); rate 0.0313 kg/ha): 0.0
- Preemergence herbicidal rating ZEAMX (ZEAMX (Corn, Field); rate 0.0625 kg/ha): 0.0
- Preemergence herbicidal rating ZEAMX (ZEAMX (Corn, Field); rate 0.1250 kg/ha): 0.0
- Preemergence herbicidal rating ZEAMX (ZEAMX (Corn, Field); rate 0.2500 kg/ha): 2.0
- Preemergence herbicidal rating TRZAWR ([1]; rate 0.0156 kg/ha): 0.0
- Preemergence herbicidal rating TRZAWR ([1]; rate 0.0313 kg/ha): 0.0
- Preemergence herbicidal rating TRZAWR ([1]; rate 0.0625 kg/ha): 0.0
- Preemergence herbicidal rating TRZAWR ([1]; rate 0.1250 kg/ha): 0.0
- Preemergence herbicidal rating TRZAWR ([1]; rate 0.2500 kg/ha): 0.0
- Herbicidal rating CYPIR (CYPIR (Rice Flatsedge); rate 0.0313 kg/ha): 0.0
- Herbicidal rating CYPIR (CYPIR (Rice Flatsedge); rate 0.0625 kg/ha): 0.0
- Herbicidal rating CYPIR (CYPIR (Rice Flatsedge); rate 0.1250 kg/ha): 4.0
- Herbicidal rating CYPIR (CYPIR (Rice Flatsedge); rate 0.2500 kg/ha): 6.0
- Herbicidal rating SAGPY ([2]; 0.0313 kg/ha): 0.0
- Herbicidal rating SAGPY ([2]; 0.0625 kg/ha): 0.0
- Herbicidal rating SAGPY ([2]; 0.1250 kg/ha): 4.0
- Herbicidal rating SAGPY ([2]; 0.2500 kg/ha): 7.0
- Herbicidal rating MOOVA (MOOVA (Monochoria); 0.0313 kg/ha): 5.0
- Herbicidal rating MOOVA (MOOVA (Monochoria); 0.0625 kg/ha): 6.0
- Herbicidal rating MOOVA (MOOVA (Monochoria); 0.1250 kg/ha): 9.0
- Herbicidal rating MOOVA (MOOVA (Monochoria); 0.2500 kg/ha): 9.0
- Postemergence herbicidal rating AMBEL (AMBEL (Ragweed, Common); Rate 0.0156 kg/ha): 3.0
- Postemergence herbicidal rating AMBEL (AMBEL (Ragweed, Common); Rate 0.0313 kg/ha): 9.0
- Postemergence herbicidal rating AMBEL (AMBEL (Ragweed, Common); Rate 0.0625 kg/ha): 9.0
- Preemergence herbicidal rating ECHCG (ECHCG (Barnyardgrass); rate 0.0156 kg/ha): 0.0
- Preemergence herbicidal rating ECHCG (ECHCG (Barnyardgrass); rate 0.0313 kg/ha): 0.0
- Preemergence herbicidal rating ECHCG (ECHCG (Barnyardgrass); rate 0.0625 kg/ha): 0.0
- Preemergence herbicidal rating ECHCG (ECHCG (Barnyardgrass); rate 0.1250 kg/ha): 0.0
- Preemergence herbicidal rating ECHCG (ECHCG (Barnyardgrass); rate 0.2500 kg/ha): 0.0
- Postemergence herbicidal rating CASOB (CASOB (Sicklepod) [3]; Rate 0.0156 kg/ha): 0.0
- Postemergence herbicidal rating CASOB (CASOB (Sicklepod) [3]; Rate 0.0313 kg/ha): 2.0
- Postemergence herbicidal rating CASOB (CASOB (Sicklepod) [3]; Rate 0.0625 kg/ha): 2.0
- Preemergence herbicidal rating GLXMAW ([4]; rate 0.0156 kg/ha): 0.0
- Preemergence herbicidal rating GLXMAW ([4]; rate 0.0313 kg/ha): 0.0
- Preemergence herbicidal rating GLXMAW ([4]; rate 0.0625 kg/ha): 0.0
- Preemergence herbicidal rating GLXMAW ([4]; rate 0.1250 kg/ha): 0.0
- Preemergence herbicidal rating GLXMAW ([4]; rate 0.2500 kg/ha): 0.0
- Preemergence herbicidal rating ABUTH (ABUTH (Velvetleaf); rate 0.0156 kg/ha): 4.0
- Preemergence herbicidal rating ABUTH (ABUTH (Velvetleaf); rate 0.0313 kg/ha): 4.0
- Preemergence herbicidal rating ABUTH (ABUTH (Velvetleaf); rate 0.0625 kg/ha): 9.0
- Preemergence herbicidal rating ABUTH (ABUTH (Velvetleaf); rate 0.1250 kg/ha): 9.0
- Preemergence herbicidal rating ABUTH (ABUTH (Velvetleaf); rate 0.2500 kg/ha): 9.0
- Preemergence herbicidal rating CASOB (CASOB (Sicklepod) [5]; rate 0.0156 kg/ha): 0.0
- Preemergence herbicidal rating CASOB (CASOB (Sicklepod) [5]; rate 0.0313 kg/ha): 0.0
- Preemergence herbicidal rating CASOB (CASOB (Sicklepod) [5]; rate 0.0625 kg/ha): 0.0
- Preemergence herbicidal rating CASOB (CASOB (Sicklepod) [5]; rate 0.1250 kg/ha): 0.0
- Preemergence herbicidal rating CASOB (CASOB (Sicklepod) [5]; rate 0.2500 kg/ha): 0.0
- Preemergence herbicidal rating IPOHE ([6]; rate 0.0156 kg/ha): 0.0
- Preemergence herbicidal rating IPOHE ([6]; rate 0.0313 kg/ha): 0.0
- Preemergence herbicidal rating IPOHE ([6]; rate 0.0625 kg/ha): 0.0
- Preemergence herbicidal rating IPOHE ([6]; rate 0.1250 kg/ha): 0.0
- Preemergence herbicidal rating IPOHE ([6]; rate 0.2500 kg/ha): 9.0
- Postemergence herbicidal rating IPOHE ([7]; Rate 0.0156 kg/ha): 9.0
- Postemergence herbicidal rating IPOHE ([7]; Rate 0.0313 kg/ha): 9.0
- Postemergence herbicidal rating IPOHE ([7]; Rate 0.0625 kg/ha): 9.0

Compound: CCOC(=O)CN1C(=O)C(=C2CCCC2)SC1=Nc1cc(-n2c(=O)cc(C(F)(F)F)n(C)c2=O)c(F)cc1Cl [Compound 18, Ethyl 2-{{2-chloro-5-[3,6-dihydro-3-methyl-2,6-dioxo-4-(trifluoromethyl)-1(2H)-pyrimidinyl]-4-fluorophenyl}imino}-5-cyclopentylidene-4-oxo-3-thiazolidineacetate]
- GALAP herbicidal rating (GALAP (Galium); rate 0.0158 kg/ha): 2.0
- GALAP herbicidal rating (GALAP (Galium); rate 0.0315 kg/ha): 5.0
- GALAP herbicidal rating (GALAP (Galium); rate 0.0630 kg/ha): 6.0
- ZEAMX preemergence herbicidal rating (ZEAMX (Corn, Field); rate 0.1250 kg/ha): 0.0
- ZEAMX preemergence herbicidal rating (ZEAMX (Corn, Field); rate 0.2500 kg/ha): 0.0
- TRZAWR preemergence herbicidal rating ([1]; rate 0.1250 kg/ha): 0.0
- TRZAWR preemergence herbicidal rating ([1]; rate 0.2500 kg/ha): 0.0
- Herbicidal rating CYPIR (CYPIR (Rice Flatsedge); rate 0.1160 kg/ha): 0.0
- Herbicidal rating CYPIR (CYPIR (Rice Flatsedge); rate 0.2310 kg/ha): 0.0
- Herbicidal rating CYPIR (CYPIR (Rice Flatsedge); rate 0.4630 kg/ha): 0.0
- Herbicidal rating SAGPY ([2]; 0.1160 kg/ha): 0.0
- Herbicidal rating SAGPY ([2]; 0.2310 kg/ha): 0.0
- Herbicidal rating SAGPY ([2]; 0.4630 kg/ha): 6.0
- Herbicidal rating MOOVA (MOOVA (Monochoria); 0.1160 kg/ha): 9.0
- Herbicidal rating MOOVA (MOOVA (Monochoria); 0.2310 kg/ha): 9.0
- Herbicidal rating MOOVA (MOOVA (Monochoria); 0.4630 kg/ha): 9.0
- AMBEL herbicidal rating (AMBEL (Ragweed, Common); rate 0.0158 kg/ha): 4.0
- AMBEL herbicidal rating (AMBEL (Ragweed, Common); rate 0.0315 kg/ha): 9.0
- AMBEL herbicidal rating (AMBEL (Ragweed, Common); rate 0.0630 kg/ha): 7.0
- ECHCG preemergence herbicidal rating (ECHCG (Barnyardgrass); rate 0.1250 kg/ha): 0.0
- ECHCG preemergence herbicidal rating (ECHCG (Barnyardgrass); rate 0.2500 kg/ha): 0.0
- CASOB herbicidal rating (CASOB (Sicklepod) [3]; rate 0.0158 kg/ha): 0.0
- CASOB herbicidal rating (CASOB (Sicklepod) [3]; rate 0.0315 kg/ha): 1.0
- CASOB herbicidal rating (CASOB (Sicklepod) [3]; rate 0.0630 kg/ha): 1.0
- GLXMAW preemergence herbicidal rating ([4]; rate 0.1250 kg/ha): 0.0
- GLXMAW preemergence herbicidal rating ([4]; rate 0.2500 kg/ha): 3.0
- ABUTH preemergence herbicidal rating (ABUTH (Velvetleaf); rate 0.1250 kg/ha): 2.0
- ABUTH preemergence herbicidal rating (ABUTH (Velvetleaf); rate 0.2500 kg/ha): 9.0
- CASOB preemergence herbicidal rating (CASOB (Sicklepod) [5]; rate 0.1250 kg/ha): 0.0
- CASOB preemergence herbicidal rating (CASOB (Sicklepod) [5]; rate 0.2500 kg/ha): 0.0
- IPOHE preemergence herbicidal rating ([6]; rate 0.1250 kg/ha): 0.0
- IPOHE preemergence herbicidal rating ([6]; rate 0.2500 kg/ha): 1.0
- IPOHE herbicidal rating ([7]; rate 0.0158 kg/ha): 2.0
- IPOHE herbicidal rating ([7]; rate 0.0315 kg/ha): 6.0
- IPOHE herbicidal rating ([7]; rate 0.0630 kg/ha): 9.0

Reference: patent publication US20020137929A1, “1 - (3-heterocyclylphenyl) isothiourea, -isourea, -guanidine and -amidine herbicidal agents” (Intellectual Property Department, BASF Aktiengesellschaft, priority 1998, published 2002)
